Here are results for 21 molecules from patent US20140369933A1, “FLUORINE-18 LABELED HYDROGEN ION PROBES” (The Trustees of The University of Pennsylvania, priority 2011, published 2014).

A word on the pKa: it is the negative logarithm of the acid dissociation constant.

Data set [1] can be described thus: UV-VIS absorption maxima of indicator forms. Particulars: for absorption maximum of basic form: basic form of indicator; for absorption maximum of acidic form: acidic form of indicator. Format: physicochemical.
Description: (§1) The values of pKa of the indicators were determined by UV-VIS spectroscopy from the pH dependence of absorption of their basic forms and other spectroscopic investigations of the products were performed by Beckman-Coulter DU 530 spectrophotometer using acetate, phosphate, TRIZMA, and borate buffers for different values of pH. The number of fluorine atoms in the molecule was also determined by comparison of the ratio of sample activity to absorption of the basic forms of indicators.
Data set [2] is described as follows: pKa of the indicators by UV-VIS spectroscopy from pH dependence of absorption of basic forms.
Description: as §1
For data set [3] the following is noted: parental compound, intravenous injection, renal excretion; cited from earlier work.
The mark [4] stands for this setting: UV-VIS, pH dependence of absorption of basic form, acetate, phosphate, TRIZMA, borate buffers.

Read-outs that look alike come from different tables or passages of the source.

In the case of monofluoronaphtholphthalein, the “absorption maximum of basic form” value in data set [1] is recorded as 660 nm. In data set [2] (setting [4]), the pKa is 7.7.
Regarding `Cc1cc(O)c(C(C)C)cc1C1(c2cc(C(C)C)c(O)cc2C)OS(=O)(=O)c2ccccc21` [Thymol Blue, thymolsulfonphthalein, reference compound], the “absorption maximum of basic form” value in data set [1] is 597 nm. Moreover, the pKa in data set [2] (setting [4]) was determined as 8.85.
For `O=S1(=O)OC(c2ccc(O)c([18F])c2)(c2cc([18F])c(O)c([18F])c2)c2ccccc21` (stereo not drawn) [TFPR, trifluorophenol red], the “absorption maximum of basic form” value in data set [1] is 572 nm. Also, the pKa in data set [2] turned out to be 5.9.
The like results for `Cc1cc(O)c([18F])cc1C1(c2cc([18F])c(O)c([18F])c2C)OS(=O)(=O)c2ccccc21` (stereo not drawn) [TFCP, trifluorocresolsulfonphthalein] were, in that order, 592 nm and 6.4.
As to monofluorocresolsulfonphthalein [MFCP], in data set [1], the “absorption maximum of basic form” value is recorded as 582 nm.
As for `Cc1c(C2(c3cc(C(C)C)c(O)c([18F])c3C)OS(=O)(=O)c3ccccc32)cc(C(C)C)c(O)c1[18F]` [DFTB, difluorothymolsulfonphthalein], the “absorption maximum of basic form” value in data set [1] stood at 605 nm. Also, in data set [2], the pKa stood at 7.65.
For the molecule `Cc1cc(O)ccc1C1(c2ccc(O)cc2C)OS(=O)(=O)c2ccccc21` [CP, cresolsulfonphthalein, reference compound], the pKa in data set [2] (setting [4]) worked out at 8.3.
As for `O=S1(=O)OC(c2ccc(O)cc2)(c2ccc(O)c([18F])c2)c2ccccc21` (stereo not drawn) [MFPR, monofluorophenol red], in data set [1], the “absorption maximum of acidic form” value amounted to 436 nm and the “absorption maximum of basic form” value turned out to be 564 nm. Further, the pKa in data set [2] came to 7.3.
With `Cc1cc(O)c(C(C)C)cc1C1(c2cc(C(C)C)c(O)c([18F])c2C)OS(=O)(=O)c2ccccc21` (stereo not drawn) [MFTB, MonoFluoro Thymol Blue], the “absorption maximum of basic form” value in data set [1] was 599 nm. In addition, in data set [2], the pKa worked out at 8.25.
The like results for `O=C1OC(c2ccc(O)c3ccccc23)(c2ccc(O)c3ccccc23)c2ccccc21` [naphtholphthalein, reference compound] were, in that order, 653 nm and 7.95.
On to `O=S1(=O)OC(c2ccc(O)cc2)(c2ccc(O)cc2)c2ccccc21` [Phenol Red, phenolsulfonphthalein, reference compound], for which, in data set [1], the “absorption maximum of acidic form” value came to 433 nm and the “absorption maximum of basic form” value is 558 nm. In addition, the “half-life, mostly renal clearance” value in data set [3] was 20 to 30 min. The molecule further displayed a pKa in data set [2] of 7.9.
Take difluorocresolsulfonphthalein [DFCP]: the “absorption maximum of basic form” value in data set [1] is reported as 589 nm.
As for `Cc1cc(C2(c3ccc(O)c(C)c3)OS(=O)(=O)c3ccccc32)ccc1O` [Cresol Red, ortho-cresolsulfonphthalein, reference compound], the “absorption maximum of basic form” value in data set [1] turned out to be 572 nm. The molecule also yielded a pKa in data set [2] (setting [4]) of 8.2.
Turning to `O=C1OC(c2cc([18F])c(O)c3ccccc23)(c2cc([18F])c(O)c3ccccc23)c2ccccc21` [difluoronaphtholphthalein], in data set [1], the “absorption maximum of basic form” value was determined as 668 nm. This molecule also displayed a pKa in data set [2] of 7.2.
Turning to `O=S1(=O)OC(c2ccc(O)c([18F])c2)(c2ccc(O)c([18F])c2)c2ccccc21` [DFPR, difluorophenol red], in data set [1], the “absorption maximum of acidic form” value worked out at 428 nm and the “absorption maximum of basic form” value is on record as 570 nm. In addition, the pKa in data set [2] came to 6.4.
Consider `O=C1OC(c2ccc(O)cc2)(c2ccc(O)c([18F])c2)c2ccccc21` (stereo not drawn) [monofluorophenolphthalein], for which the “absorption maximum of basic form” value in data set [1] came to 558 nm. This molecule returned a pKa in data set [2] of 9.3.
The like results for `Cc1cc(C2(c3cc(C)c(O)c([18F])c3)OS(=O)(=O)c3ccccc32)cc([18F])c1O` [DFCR, DiFluoroCresol Red] were, in that order, 582 nm and 6.8.
The like results for `Cc1cc(C2(c3cc(C)c(O)c([18F])c3)OS(=O)(=O)c3ccccc32)ccc1O` (stereo not drawn) [MFCR, MonoFluoroCresol Red] were, in that order, 576 nm and 7.6.
The like results for `O=C1OC(c2ccc(O)c([18F])c2)(c2ccc(O)c([18F])c2)c2ccccc21` [difluorophenolphthalein] were, in that order, 564 nm and 8.7.
With `O=C1OC(c2ccc(O)cc2)(c2ccc(O)cc2)c2ccccc21` [phenolphthalein, reference compound], the “absorption maximum of basic form” value in data set [1] is 553 nm. In data set [2], this molecule had a pKa of 9.75.
Take trifluorophenol red [TFPR]: the “absorption maximum of basic form” value in data set [1] stood at 572 nm.
